Data on two compounds can be found in patent US20170190705A1, “Compositions and Methods for Inhibiting BMP” (THE BRIGHAM AND WOMAN'S HOSPITAL, INC., priority 2014, published 2017).

The target of one test is T1, ALK5 (Homo sapiens, UniProt P36897).
T1 construct: made in house
T1 sequence (P36897 34-503): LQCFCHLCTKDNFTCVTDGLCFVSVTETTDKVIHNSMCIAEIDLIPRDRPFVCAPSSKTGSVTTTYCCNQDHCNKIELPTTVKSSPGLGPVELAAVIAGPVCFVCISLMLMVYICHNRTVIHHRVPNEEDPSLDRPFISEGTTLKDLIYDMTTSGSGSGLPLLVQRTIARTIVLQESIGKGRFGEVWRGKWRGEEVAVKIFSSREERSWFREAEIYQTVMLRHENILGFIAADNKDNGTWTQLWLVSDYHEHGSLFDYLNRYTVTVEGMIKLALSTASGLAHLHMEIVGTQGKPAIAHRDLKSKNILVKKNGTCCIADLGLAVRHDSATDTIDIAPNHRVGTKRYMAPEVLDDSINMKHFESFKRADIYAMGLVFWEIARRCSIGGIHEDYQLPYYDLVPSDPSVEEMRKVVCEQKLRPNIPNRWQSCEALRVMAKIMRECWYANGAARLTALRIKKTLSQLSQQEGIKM
Briefly: Thermal shift kinase assay ALK5. The conditions noted are these: for ΔTm at 10 µM: 10 μM inhibitor; for ΔT ALK5: Table 6. The format is binding. Here is the method:
Thermal melting experiments were performed using a Real Time PCR machine Mx3005p (Stratagene) with a protein concentration of 1-2 μM and 10 μM inhibitor as described by Niesen et al., Nat Protoc 2007, 2, 2212-21. Recombinant human kinases for DSF screening were prepared by SGC using the published methods of Sanvitale et al., PLoS One 2013, 8, e62721. The potency and selectivity of certain compounds of the invention based on thermal shift kinase and ligand induced transcriptional activity assays are shown in Table 2.

The target of another test is T2, EPHB4 (Homo sapiens, UniProt P54760).
T2 sequence (P54760 16-987): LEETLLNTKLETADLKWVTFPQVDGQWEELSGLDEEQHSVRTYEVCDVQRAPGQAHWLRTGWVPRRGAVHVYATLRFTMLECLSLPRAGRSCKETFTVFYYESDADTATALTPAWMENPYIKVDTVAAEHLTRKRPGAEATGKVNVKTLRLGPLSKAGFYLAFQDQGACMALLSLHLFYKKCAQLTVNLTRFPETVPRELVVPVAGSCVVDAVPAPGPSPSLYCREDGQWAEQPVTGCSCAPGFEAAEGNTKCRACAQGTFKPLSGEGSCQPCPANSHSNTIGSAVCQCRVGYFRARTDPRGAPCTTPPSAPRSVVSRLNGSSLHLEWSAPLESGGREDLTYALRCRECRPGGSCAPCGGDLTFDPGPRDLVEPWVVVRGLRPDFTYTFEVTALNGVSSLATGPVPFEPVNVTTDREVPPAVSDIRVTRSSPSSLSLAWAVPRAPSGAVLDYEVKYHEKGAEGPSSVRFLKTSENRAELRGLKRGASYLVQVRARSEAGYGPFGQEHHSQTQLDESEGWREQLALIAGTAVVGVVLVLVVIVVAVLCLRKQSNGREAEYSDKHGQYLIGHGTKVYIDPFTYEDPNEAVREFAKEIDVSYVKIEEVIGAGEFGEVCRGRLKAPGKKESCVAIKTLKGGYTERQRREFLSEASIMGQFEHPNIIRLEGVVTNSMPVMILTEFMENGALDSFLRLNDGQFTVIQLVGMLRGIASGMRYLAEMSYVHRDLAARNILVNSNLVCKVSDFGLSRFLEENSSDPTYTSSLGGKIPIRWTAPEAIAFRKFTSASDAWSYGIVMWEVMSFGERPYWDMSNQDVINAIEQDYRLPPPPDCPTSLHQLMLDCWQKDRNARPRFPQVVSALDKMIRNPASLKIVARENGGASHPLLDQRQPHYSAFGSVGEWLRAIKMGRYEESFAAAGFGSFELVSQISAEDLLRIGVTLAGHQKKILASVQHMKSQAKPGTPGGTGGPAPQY
The test is described as follows: Kinome profiling EPHB4. The format is biochemical. Particulars: read-out: Inhibitory activity EPHB4; for inhibition at 0.1 µM: 100 nM. Here is the method:
(§1) . The kinome-wide selectivity was determined following the methods previously reported by Mohedas et al., ACS Chem Biol 2013, 8, 1291-1302 and Sanvitale et al., PLoS One 2013, 8, e62721.

In a further test the target is MKNK1 (Homo sapiens, UniProt Q9BUB5). The test is described as follows: Kinome profiling MKNK1. The format is biochemical. The conditions noted are these: read-out: Inhibitory activity MKNK1; for inhibition at 0.1 µM: 100 nM. Here is the method:
as §1

Another test addresses PKC-θ (Homo sapiens, UniProt Q04759). Briefly: Kinome profiling PKC-θ. The format is biochemical. The conditions noted are these: read-out: Inhibitory activity PKC-θ; for inhibition at 0.1 µM: 100 nM. On the procedure:
as §1

In the next test the target is MAPKAPK3 (Homo sapiens, UniProt Q16644). The test is described as follows: Kinome profiling MAPKAPK3. The format is biochemical. The conditions noted are these: read-out: Inhibitory activity MAPKAPK3; for inhibition at 0.1 µM: 100 nM. Here is the method: as §1
A further test concerns the target MSK2 (Homo sapiens, UniProt O75676). Briefly: Kinome profiling MSK2. Type of test: biochemical. Particulars: read-out: Inhibitory activity MSK2; for inhibition at 0.1 µM: 100 nM. On the procedure: as §1

SMILES strings stand for the structures.

MSK2, sequence (O75676 whole entry): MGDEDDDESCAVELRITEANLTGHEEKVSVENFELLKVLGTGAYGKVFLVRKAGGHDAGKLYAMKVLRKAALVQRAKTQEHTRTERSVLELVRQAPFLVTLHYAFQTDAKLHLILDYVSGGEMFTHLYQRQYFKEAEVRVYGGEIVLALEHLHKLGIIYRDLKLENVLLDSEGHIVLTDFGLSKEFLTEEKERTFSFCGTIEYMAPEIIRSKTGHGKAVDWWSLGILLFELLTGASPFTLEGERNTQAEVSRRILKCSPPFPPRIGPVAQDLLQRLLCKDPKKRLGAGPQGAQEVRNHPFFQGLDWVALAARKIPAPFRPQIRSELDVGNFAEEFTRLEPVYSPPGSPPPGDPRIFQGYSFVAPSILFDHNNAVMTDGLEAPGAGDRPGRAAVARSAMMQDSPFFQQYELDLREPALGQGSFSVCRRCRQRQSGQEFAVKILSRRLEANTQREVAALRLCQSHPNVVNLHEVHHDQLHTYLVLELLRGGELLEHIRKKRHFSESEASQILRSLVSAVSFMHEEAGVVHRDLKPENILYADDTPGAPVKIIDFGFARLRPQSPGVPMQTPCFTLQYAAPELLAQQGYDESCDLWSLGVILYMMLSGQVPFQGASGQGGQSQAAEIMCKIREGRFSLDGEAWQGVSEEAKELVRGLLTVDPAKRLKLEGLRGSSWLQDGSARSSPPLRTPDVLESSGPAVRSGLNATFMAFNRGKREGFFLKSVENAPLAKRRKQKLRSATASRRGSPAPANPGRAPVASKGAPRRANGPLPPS
MAPKAPK3, sequence (Q16644 whole entry): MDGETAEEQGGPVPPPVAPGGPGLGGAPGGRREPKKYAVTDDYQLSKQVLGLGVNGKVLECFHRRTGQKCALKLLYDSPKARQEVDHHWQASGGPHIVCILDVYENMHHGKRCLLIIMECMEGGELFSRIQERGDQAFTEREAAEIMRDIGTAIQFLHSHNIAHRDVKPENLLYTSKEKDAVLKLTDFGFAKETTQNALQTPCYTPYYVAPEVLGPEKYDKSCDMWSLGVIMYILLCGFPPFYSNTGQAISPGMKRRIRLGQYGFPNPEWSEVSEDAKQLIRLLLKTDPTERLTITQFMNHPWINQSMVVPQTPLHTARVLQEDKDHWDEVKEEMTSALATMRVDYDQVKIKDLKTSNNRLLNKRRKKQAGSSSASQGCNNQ
PKC-θ, sequence (Q04759 whole entry): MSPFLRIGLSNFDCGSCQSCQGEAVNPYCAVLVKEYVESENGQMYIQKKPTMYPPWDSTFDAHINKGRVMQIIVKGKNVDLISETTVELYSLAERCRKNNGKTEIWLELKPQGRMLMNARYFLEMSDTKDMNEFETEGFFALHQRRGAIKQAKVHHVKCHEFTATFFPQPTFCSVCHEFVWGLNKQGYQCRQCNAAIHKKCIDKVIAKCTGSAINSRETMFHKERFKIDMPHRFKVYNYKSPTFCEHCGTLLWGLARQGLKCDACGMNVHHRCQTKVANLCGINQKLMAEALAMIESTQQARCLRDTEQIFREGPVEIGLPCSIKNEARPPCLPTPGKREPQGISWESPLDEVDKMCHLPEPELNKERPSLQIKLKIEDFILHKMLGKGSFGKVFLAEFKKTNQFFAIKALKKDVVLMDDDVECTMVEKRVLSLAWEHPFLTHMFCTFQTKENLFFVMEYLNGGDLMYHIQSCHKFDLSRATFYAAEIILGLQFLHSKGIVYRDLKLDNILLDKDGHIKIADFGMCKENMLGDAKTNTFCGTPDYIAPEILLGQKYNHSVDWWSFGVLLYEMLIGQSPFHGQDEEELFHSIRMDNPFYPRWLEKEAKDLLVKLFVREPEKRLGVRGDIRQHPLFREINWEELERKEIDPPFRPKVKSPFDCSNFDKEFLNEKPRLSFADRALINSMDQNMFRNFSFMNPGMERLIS
MKNK1, sequence (Q9BUB5 whole entry): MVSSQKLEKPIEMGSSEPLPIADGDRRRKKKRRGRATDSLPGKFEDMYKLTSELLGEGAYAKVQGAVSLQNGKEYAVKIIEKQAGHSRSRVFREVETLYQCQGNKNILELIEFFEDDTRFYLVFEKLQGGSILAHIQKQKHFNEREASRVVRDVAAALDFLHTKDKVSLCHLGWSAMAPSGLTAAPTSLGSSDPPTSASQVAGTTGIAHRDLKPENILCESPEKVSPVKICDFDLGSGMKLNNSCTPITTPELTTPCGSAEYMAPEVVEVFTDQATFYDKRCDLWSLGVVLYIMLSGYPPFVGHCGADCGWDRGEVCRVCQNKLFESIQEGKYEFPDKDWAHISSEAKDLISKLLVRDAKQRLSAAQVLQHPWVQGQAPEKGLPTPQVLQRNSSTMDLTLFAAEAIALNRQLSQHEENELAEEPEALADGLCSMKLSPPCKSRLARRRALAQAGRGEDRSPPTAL

In the case of `COc1cc(-c2cc(-c3ccc(N4CCNCC4)cc3)cnc2N)cc(OC)c1OC` [Compound 15, 5-(4-(piperazin-1-yl)phenyl)-3-(3,4,5-trimethoxyphenyl)pyridin-2-amine], the ΔTm at 10 µM on ALK5 stood at 13.9 °C. Moreover, the “ΔT ALK5” value on ALK5 stood at 13.9 °C. The inhibition at 0.1 µM at EPHB4 is 7%; at MKNK1, 3%; on PKC-θ, 1%; at MAPKAPK3 it was 1%; at MSK2, 1%. For the same compound, the inhibition at 1 µM on EPHB4 was 45%; on MKNK1, 5%; on PKC-θ it was 1%; on MAPKAPK3, 1%; on MSK2 it was -1%.
For the compound `COc1cc(-c2cc(-c3ccc(N4CCNCC4)cc3)cnc2C)cc(OC)c1OC` [Compound 10, 1-(4-(6-methyl-5-(3,4,5-trimethoxyphenyl)pyridin-3-yl)phenyl)piperazine], the ΔTm at 10 µM on ALK5 stood at 9.7 °C. Also, the “ΔT ALK5” value at ALK5 amounted to 9.7 °C. Moreover, the inhibition at 0.1 µM on EPHB4 is 5%; at MKNK1, 3%; at PKC-θ it was 1%; on MAPKAPK3 it was -1%; on MSK2, 0%. Also, the inhibition at 1 µM on EPHB4 was 8%; at MKNK1, 5%; at PKC-θ, 2%; at MAPKAPK3 it was 0%; at MSK2 it was 1%.

As usually defined, the ΔTm is the shift of the melting midpoint relative to a reference.
